We go through ten compounds from patent US20230381774A1, “MICROFLUDIC LAB-ON-CHIP DEVICE, MATRIX, SMALL MOLECULES AND THREE-DIMENSIONAL SPHEROIDS FOR CELL REPROGRAMMING” (The Regents of the University of California, priority 2022, published 2023).

Assay [1] has as its system primary human neonatal dermal fibroblasts (hNDFs). Description: Spatial iN reprogramming in 3D spheroids (Tuj1 staining). In kind it is cell-based. The note with it: 3 days of reprogramming, relative to no-treatment controls. The source says: For the reduction to practice, primary human neonatal dermal fibroblasts (hNDFs) were transduced with doxycycline (Dox)-inducible lentiviral vectors for the BAMN factors. After Dox induction in monolayer to ensure unbiased activation of the transgenes, hNDFs were either plated onto Matrigel-coated cover slips as 2D controls or centrifuged in microwells to form 3D aggregates, or “spheroids” (FIG. 9A). The expression of neuron-specific β-tubulin III (Tuj1) was used as a marker of neuronal fate, as is convention. Tuj1 expression began earlier in spheroids than in 2D culture, appearing as early as day 2 (two days after Dox induction and one day after spheroid formation) (FIG. 9BC). To evaluate relative reprogramming efficiency, spheroids were replated onto Matrigel-coated cover slips after three days without enzymatic disaggregation.
Direct reprogramming involves both disruption of the existing regulatory network (generally early on) and establishment of another. The initial nonspecific disruption is often mechanistically associated with cell cycle regulation, cell senescence, chromatin inactivation, and genome stability. To assess the impact of mechanobiological changes associated with spheroid culture on direct reprogramming, primary human neonatal dermal fibroblasts (hNDFs) were transduced with doxycycline (dox)-inducible lentiviral vectors for the BAMN factors. […]

In assay [2] the test system is BAM-transduced fibroblasts. Nature of the assay: iN reprogramming of BAM-transduced fibroblasts with chemical/siRNA treatment and microfluidic squeezing (Tuj1 staining, day 7). The format is cell-based, mouse. The following applies: for iN reprogramming efficiency: agent alone without squeezing, vs control, Bix01294 1 μM, JIB-04 100 nM, Decitabine 0.5 μM, 24 hours; for increase of iN conversion: alone, at its optimal concentration; for nuclear deformation-induced iN reprogramming efficiency: pre-treatment followed by squeezing in 7-μm microchannels, vs squeezed-only group. Here is the method:
Fibroblasts were isolated from ear tissues of adult (1 month-old) C57BL/6 mice, Tau-EGFP reporter mice (Jackson Laboratory, 004779) and R26-M2rtTA;Col1a1-tetO-H2B-GFP compound mutant mice (Jackson Laboratory, 016836), and expanded in fibroblast medium: DMEM (Gibco, 11965), 10% fetal bovine serum (FBS; Gibco, 26140079) and 1% penicillin/streptomycin (GIBCO, 15140122). For all experiments, passage-2 cells were used and synchronized upon reaching 80% confluency using DMEM with 1% FBS for 24 hours before the transduction with viruses containing BAM constructs. The following day (day 0) the medium was changed to mouse embryonic fibroblasts (MEF) medium containing doxycycline (2 ng/ml, Sigma) to initiate the expression of the transgenes and thus, reprogramming. After 6 hours, transduced fibroblasts were passaged, and either subjected to microfluidic deformation using microchannels of various widths. Cells were then seeded onto glass slides coated with 0.1 mg/mL fibronectin (ThermoFisher, 33016015) overnight at a density of 3,000 cells/cm^2. Twenty-four hours later (day 1), cells were cultured in N2B27 medium: DMEM/F12 (Gibco, 11320033), N-2 supplement (Gibco, 17502048), B-27 supplement (Gibco, 17504044), 1% penicillin/streptomycin, and doxycycline (2 ng/ml), and half medium changes were performed every 2 days. On day 7 after microfluidic deformation, cells were fixed and stained for Tuj1 to determine the reprogramming efficiency. iN cells were identified based on positive Tuj1 staining and a neuronal morphology. The reprogramming efficiency was determined as the percentage of iN cells on day 7 relative to the number of the cells initially seeded. For long-term studies where maturation and functionality of the iN cells were examined, cells were kept in culture for 5 weeks. Reprogramming of iPSC from wild-type fibroblasts was performed as described previously^18.
To determine the role of H3K9 methylation in microfluidic device-induced iN reprogramming, BAM-transduced fibroblasts were treated with the H3K9 methyltransferase inhibitor Bix-01294 (Cayman chemical, 13124) or demethylase inhibitor JIB-04 (Cayman chemical, 15338) at the indicated concentrations for 24 hours prior to introduction into the microdevice. Parallel conditions with DMSO served as a control. The iN reprogramming efficiency was determined via Tuj1 staining 7 days after squeezing.
To determine the involvement of ion channels in microfluidic device-induced iN reprogramming, calcium channel blocker Amlodipine (Cayman chemical, 14838), potassium channel blocker Quinine (Cayman chemical, 23958) and sodium channel blocker procainamide (Cayman chemical, 24359) were used to inhibit calcium, potassium, and sodium ion channels, respectively. BAM-transduced fibroblasts were treated with small molecule blockers at the indicated concentrations for 12 hours prior to being introduced into the microfluidic device. Parallel conditions with DMSO served as a control. The iN reprogramming efficiency was determined via Tuj1 staining 7 days after squeezing.

The next assay has as its system H3K9me3. Nature of the assay: H3K9me3 level in fibroblasts (immunostaining). In kind it is cell-based, mouse. The following applies: for H3K9me3 level: agent alone. Here is the method: Samples collected for immunofluorescence staining at the indicated time points were washed once with PBS and fixed in 4% paraformaldehyde for 15 minutes. Samples were washed three times with PBS for 5 minutes each and permeabilized using 0.5% Triton X-100 for 10 minutes. After three subsequent PBS washes, samples were blocked with 5% normal donkey serum (NDS; Jackson Immunoresearch, 017000121) in PBS for 1 hour. Samples were incubated with primary antibodies (Supplementary Table S1 in Song et al.) in antibody dilution buffer (1% normal donkey serum (NDS)+0.1% Triton X-100 in PBS) for either 1 hour or overnight at 4° C. followed by three PBS washes and a 1-hour incubation with Alexa Fluor® 488- and/or Alexa Fluor® 546-conjugated secondary antibodies (Molecular Probes). Nuclei were stained with DAPI in PBS for 10 minutes. Epifluorescence images were collected using a Zeiss Axio Observer Z1 inverted fluorescence microscope and analyzed using ImageJ. Confocal images were collected using a Leica SP8-STED/FLIM/FCS Confocal and analyzed using ImageJ.
Average lamin and histone marker intensities per nuclei were quantified using an ImageJ macro. Gaussian blur, thresholding, watershed, and analyze particle functions were applied to the DAPI channel to create individual selections for each nucleus. This mask was applied to the corresponding stain image to measure the average fluorescence intensity within each nucleus.

The subject of assay [3] is BAM-transduced fibroblasts. Nature of the assay: iN reprogramming of BAM-transduced fibroblasts with cytoskeletal and adhesion inhibitors (TUBB3+ iN cells, 2 weeks). In kind it is cell-based, mouse. The note with it: Y-27632 20 μM, nocodazole 0.3 μM, cytochalasin D 1 μM, jasplakinolide 0.05 μM; U0126 various doses. The protocol:
To examine whether these changes in cell stiffness, actin structure and expression of contractility-mediating genes were involved in iN reprogramming, we evaluated the effects of disrupting the cytoskeleton using small molecule inhibitors. For these experiments, BAM-transduced fibroblasts were reprogrammed as in FIG. 1A and chemical compounds known to perturb the cytoskeleton were added to the culture medium on day 1 to evaluate their effects on the reprogramming process. […] The reprogramming efficiency was determined as the percentage of TUBB3*-iN cells normalized to the number of cells plated at 24 hours post-seeding (i.e., day 0). First, we tested whether disruption of cytoskeletal contractility could influence the direct reprogramming of fibroblasts into neurons using blebbistatin, a non-muscle myosin II inhibitor^22-24. We observed that iN cells could be derived in the absence and presence of blebbistatin (FIG. 3A). […] In particular, treatment with 10 μM blebbistatin generated the highest number of iN cells and increased the reprogramming efficiency by approximately 4.5-fold compared to the control, therefore, this concentration was used in all subsequent experiments. […] As Ascl1 has been identified as a pioneer factor for iN reprogramming and transduction of Ascl1 alone is sufficient to generate iN cells^25,26, we further investigated whether blebbistatin could influence iN conversion by Ascl1 induction.
After transduction, mouse fibroblasts were seeded onto multi-well tissue culture-treated polystyrene dishes (Falcon) coated with laminin (0.1 mg/ml, Corning) at 4,000 cells per cm^2. Twenty-four hours after seeding, the medium was replaced to MEF medium containing doxycycline (2 μg/ml, Sigma). The following day (i.e., day 1) the medium was changed to N3 medium (DMEM/F12 [GIBCO]+N2 supplement [Invitrogen]+B27 supplement [Invitrogen]+1% penicillin/streptomycin [Gibco]+ doxycycline [2 μg/ml, Sigma]) and the cultures were maintained in this medium for the duration of the experiments. For Ascl1-only reprogramming, N3 medium was further supplemented with BDNF (5 ng/ml, R&D systems) and GDNF (5 ng/ml, R&D systems) after day 7. For cytoskeletal and cell adhesion disruptions, Blebbistatin (Millipore), Y-27632 (20 μM; Cayman Chemical), Nocodazole (0.3 μM; Sigma), Cytochalasin D (1 μM; Sigma), Jasplakinolide (0.05 μM; Cayman Chemical) and PF573228 (Sigma) were administered in N3 medium on day 1 and for the first 7 days of reprogramming (unless stated otherwise) and used at the indicated concentrations. Culture medium was replenished every 2 days during reprogramming to maintain the activity of the small molecules. After culturing for the desired length (14 days for BAM and 21 days for Ascl1 only), the induced neuronal (iN) cells were analyzed and the reprogramming efficiency was determined.
The reprogramming efficiency was determined by as the percentage of TUBB3^+ iN cells in each condition normalized to the number of cells plated at 24 hours post-seeding. Epifluorescence images were collected using a Zeiss Axio Observer.D1, Zeiss Axio Observer.Z1, and ImageXpress Micro XLS System (Molecular Devices), whereas confocal images were acquired using a Zeiss LSM710 microscope and Leica SP8 Confocal Laser Scanning microscope.

Another assay relates to histone marks. Nature of the assay: Immunofluorescence of histone marks in non-transduced fibroblasts. The note with it: for euchromatin marks (AcH3, H3K4me3, H3K4me1): global, 10 μM blebbistatin or 5 μM PF573228, 2 hours, vs control; for histone trends compared with blebbistatin: other cytoskeletal compounds. In kind it is cell-based, mouse. The protocol:
For immunostaining, cells were fixed with 4% paraformaldehyde (Electron Microscopy Sciences), permeabilized with 0.5% Triton-X-100 (Sigma), and blocked with 5% donkey serum (Jackson Immunoresearch) in phosphate buffered saline (PBS). For actin-cytoskeleton staining, samples were incubated with fluorescein isothiocyanate-conjugated phalloidin (Invitrogen) for 1 hour. Primary antibodies were incubated for 1 hour at room temperature or overnight at 4° C., followed by 1-hour incubation with Alexa 488 and/or Alexa 546-labeled secondary antibodies (Molecular Probes). Nuclei were stained with 4,6-diamino-2-phenylindole (DAPI) (Invitrogen).
Quantification of histone intensity per nuclei was performed using an ImageJ macro. DAPI-stained nuclei were segmented using gaussian blur, thresholding, watershed, and analyze particle functions to identify individual nuclei. This mask was applied to the corresponding stained fluorescence channel to quantify the average fluorescence intensity within each nucleus.

“Also recorded” adds a separate entry of the source.

Turning to `Cc1cccc(-c2nn(C(=S)Nc3ccccc3)cc2-c2ccnc3ccccc23)n1` [A83-01], in assay [1], the “spatial Tuj1+ reprogramming patterns, inhibitor alone” value is recorded as “did not affect spatial Tuj1+ reprogramming patterns”.

With `COc1cc2nc(N3CCCN(C)CC3)nc(NC3CCN(Cc4ccccc4)CC3)c2cc1OC` [Bix01294], in assay [2], the iN reprogramming efficiency entry is recorded as “partially mimicked the squeezing effect on the reprogramming efficiency”, the “increase of iN conversion” value is listed as “about 2 fold” and the “nuclear deformation-induced iN reprogramming efficiency” value is “slightly increased the reprogramming efficiency compared to the squeezed-only group”. Besides, in the assay with H3K9me3, the H3K9me3 level result was “specifically suppressed H3K9me3 in a dose-dependent manner”.

For the compound `Nc1ncn([C@H]2C[C@H](O)[C@@H](CO)O2)c(=O)n1` [Decitabine], in assay [2], the “increase of iN conversion” value was “about 2 fold”.

Consider `Clc1ccc(N/N=C(\c2ccccc2)c2ccccn2)nc1` [JIB-04], for which, in assay [2], the iN reprogramming efficiency entry is reported as “reduced the reprogramming efficiency compared to the control” and the “nuclear deformation-induced iN reprogramming efficiency” value is “strikingly suppressed nuclear deformation-induced iN reprogramming”. Also, the H3K9me3 level result in the assay with H3K9me3 is listed as “significantly increased H3K9me3”. For the same compound, the “decrease of H3K9me3 by squeezing” value in the assay on H3K9me3 (pre-treated for 24 hours, then 7-μm channels) is “much less than the group without JIB-04 treatment”.

As to `N#CC(=C(/N)Sc1ccccc1N)/C(C#N)=C(\N)Sc1ccccc1N` [U0126], the “reprogramming efficiency relative to control” value in assay [3] is reported as “not significantly altered”.

Turning to `C[C@@H](N)[C@H]1CC[C@H](C(=O)Nc2ccncc2)CC1` [Y-27632], the “reprogramming efficiency relative to control” value in assay [3] was “increased the yield of iN cells similar to blebbistatin, although to a lesser degree”.

As to `C=C1[C@@H](C)[C@H]2[C@H](Cc3ccccc3)NC(=O)[C@]23[C@H](OC(C)=O)/C=C/[C@@](C)(O)C(=O)[C@@H](C)C/C=C/[C@H]3[C@@H]1O` [cytochalasin D], in assay [3], the “reprogramming efficiency relative to control” value is “reduced the reprogramming efficiency relative to control; also recorded: inhibiting iN conversion”. Moreover, in the assay with histone marks, the “euchromatin marks (AcH3, H3K4me3, H3K4me1)” value (“euchromatin marks” for short) is reported as “decreasing euchromatin marks (e.g., AcH3)” and the “histone trends compared with blebbistatin” value is “no other cytoskeletal disrupting compounds”.

In the case of `C/C1=C\[C@H](C)C[C@H](C)OC(=O)C[C@H](c2ccc(O)cc2)NC(=O)[C@@H](Cc2c(Br)[nH]c3ccccc23)N(C)C(=O)[C@H](C)NC(=O)[C@@H](C)C1` [jasplakinolide], the “reprogramming efficiency relative to control” value in assay [3] is “reduced the reprogramming efficiency relative to control; also recorded: inhibiting iN conversion”. In the assay on histone marks, the “euchromatin marks” value was “decreasing euchromatin marks (e.g., AcH3)” and the “histone trends compared with blebbistatin” value is “no other cytoskeletal disrupting compounds”.

On to `COC(=O)Nc1nc2ccc(C(=O)c3cccs3)cc2[nH]1` [nocodazole], for which the “reprogramming efficiency relative to control” value in assay [3] is reported as “resulted in a reduction in the reprogramming efficiency; also recorded: inhibiting iN conversion”. For the same compound, in the assay with histone marks, the “euchromatin marks” value was “decreasing euchromatin marks (e.g., AcH3)” and the “histone trends compared with blebbistatin” value was “no other cytoskeletal disrupting compounds”.

In the case of `CCCC(CCC)C(=O)O` [valproic acid], in assay [2], the iN reprogramming efficiency result is recorded as “slightly increased iN reprogramming efficiency” and the “nuclear deformation-induced iN reprogramming efficiency” value was “additive to mechanical squeezing”.
